Experimental data reported in patent US20250017907A1, “METHOD FOR PREVENTING AND/OR TREATING LIVER FIBROSIS BY USING 6-METHOXYBENZOXAZOLINONE AND COIX LACHRYMA-JOBI L. EXTRACT COMPRISING 6-METHOXYBENZOXAZOLINONE” (Taichung District Agricultural Research and Extension …, priority 2023, published 2025).

Test system: TAA-induced liver fibrotic C57BL/6J mice
Assay: Liver weight, body weight and liver index
Assay type: in vivo
Conditions: CX groups (20 and 50 mg/kg oral, 6 weeks); vs TAA group
Procedure: For tests of adlay extracts, mice were randomly divided into the following seven groups (n=6, per group): (1) No treatment group (NT, normal diet), (2) Thioacetamide group (TAA, 200 mg/kg, normal diet), (3) 10% adlay seed powder (ASP) group, (4) 1% adlay leaf powder (ALP) group, (5) 1% adlay seed polysaccharide (ASPS) group, (6) 0.025% adlay seed ethanolic extract (ASE) group and (7) 0.1% ASE group. NT group received pure saline, and other groups intraperitoneally injected with TAA dissolved into saline thrice a week.
For tests of CX, mice were randomly divided into the following four groups (n=8, per group): (1) NT group, (2) TAA group (200 mg/kg), (3) CX group (CX20, 20 mg/kg), and (4) CX group (CX50, 50 mg/kg). NT group received pure saline, and other groups intraperitoneally injected with TAA dissolved into saline thrice a week. Moreover, NT group and TAA group also received 5% propylene glycol, while CX groups received CX dissolved into 5% propylene glycol (prepared in 0.9% saline) by oral gavage once per day.
The procedure of the schematic diagram of animal experiment design in adlay groups is described as follows. To examine the effects of adlay on liver fibrosis, this example established a TAA-induced liver fibrotic C57BL/6J mouse model. FIG. 1 is a schematic diagram of animal experiment design in adlay groups. In this experiment, C57BL/6J mice were intraperitoneally injected with thioacetamide (TAA) to induce liver fibrosis. At six weeks of age, the mice were randomly divided into seven groups fed with different diets (NT, TAA, 10% ASP, 1% ALP, 1% ASPS, 0.025% ASE and 0.1% ASE, n=6). After co-feeding for 6 weeks during which intraperitoneal injection of TAA was administered thrice a week, the mice were finally sacrificed at 12 weeks of age. NT represents no treatment, ASP represents adlay seed powder, ALP represents adlay leaf powder, ASPS represents adlay seed polysaccharide, and ASE represents adlay seed ethanolic extract. […]

COc1ccc2[nH]c(=O)oc2c1 [CX, 6-methoxybenzoxazolinone]
change in body weight caused by TAA: did not significantly improve | liver index (ratio of liver weight to body weight): decreased significantly | liver weight: reduced
